Source: US8119661B2, “Piperidine derivatives and their use as muscarinic receptor modulators” (AstraZeneca AB, priority 2007, dated 2012)

Tests used:
[1] = target: T1, hM3 (human Muscarinic receptor subtype 3) (Homo sapiens, UniProt P20309); assay: Human M3 calcium mobilization FLIPR assay; assay type: cell-based; conditions: CHO cells expressing hM3, intracellular Ca2+ release
T1 construct: expressed in transfected cells; host or cells: CHO cells (Chinese hamster ovary cells, ATCC)
Experimental: (§1) The compound activity in the present invention (EC50 or IC50) is measured using a 384 plate-based imaging assay that monitors drug induced intracellular Ca^2+ release in whole cells. Activation of hM1 (human Muscarinic receptor subtype 1, gene bank access NM_000738), rM1 (rat Muscarinic receptor subtype 1, gene bank access NM_080773), hM3 (human Muscarinic receptor subtype 3, gene bank access NM_000740NM_000740) and hM5 (human Muscarinic receptor subtype 5, gene bank access NM_0121258), receptors expressed in CHO cells (Chinese hamster ovary cells, ATCC) is quantified in a Molecular Devices FLIPR II™ instrument as an increase in fluorescent signal. Inhibition of hM3 and hM5 by compounds is determined by the decrease in fluorescent signal in response to 2 nM acetylcholine activation.
(§2) Prior to experiment, the cell culture medium is removed from the plates by inversion. […] Plates are incubated at 37° C. for 60 minutes prior to start the experiment. The incubation is terminated by washing the cells four times in assay buffer, leaving a residual 25 μl buffer per well. Cell plates are then transferred to the FLIPR, ready for compound additions.
(§3) The day of experiment, acetylcholine and compounds are diluted in assay buffer in three-fold concentration range (10 points serial dilution) for addition by FLIPR instrument. For all calcium assays, a baseline reading is taken for 10 seconds followed by the addition of 12.5 μl of compounds, resulting in a total well volume of 37.5 μl. Data is collected every second for 60 pictures and then every 6 seconds for 20 pictures prior to the addition of agonist. For hM3 and hM5, before agonist addition, a second baseline reading is taken for 10 seconds followed by the addition of 12.5 μl of agonist or buffer, producing a final volume of 50 μl. After agonist stimulation, the FLIPR continues to collect data every second for 60 pictures and then every 6 seconds for 20 pictures. The fluorescence emission is read using filter 1 (emission 510-570 nm) by the FLIPR on board CCD camera.
(§4) Calcium mobilization output data are calculated as the maximal relative fluorescence unit (RFU) minus the minimal value for both compound and agonist reading frame (except for hM1 and rM1 using only the maximal RFU). Data are analyzed using sigmoidal fits of a non-linear curve-fitting program (XLfit version 4.2.2 Excel add-in version 4.2.2 build 18 math 1Q version 2.1.2 build 18). All pEC50 and pIC50 values are reported as arithmetic means±standard error of mean of ‘n’ independent experiments.

cloned human M4 receptor = target: T2, cloned human M4 receptor (Homo sapiens, UniProt P08173); assay: hM4 receptor GTPγS binding; assay type: biochemical; conditions: CHO membranes expressing hM4, [35S]GTPγS binding
T2 construct: purchased Perkin-Elmer RBHM4M; host or cells: CHO cell membranes
T2 sequence (P08173 1-479): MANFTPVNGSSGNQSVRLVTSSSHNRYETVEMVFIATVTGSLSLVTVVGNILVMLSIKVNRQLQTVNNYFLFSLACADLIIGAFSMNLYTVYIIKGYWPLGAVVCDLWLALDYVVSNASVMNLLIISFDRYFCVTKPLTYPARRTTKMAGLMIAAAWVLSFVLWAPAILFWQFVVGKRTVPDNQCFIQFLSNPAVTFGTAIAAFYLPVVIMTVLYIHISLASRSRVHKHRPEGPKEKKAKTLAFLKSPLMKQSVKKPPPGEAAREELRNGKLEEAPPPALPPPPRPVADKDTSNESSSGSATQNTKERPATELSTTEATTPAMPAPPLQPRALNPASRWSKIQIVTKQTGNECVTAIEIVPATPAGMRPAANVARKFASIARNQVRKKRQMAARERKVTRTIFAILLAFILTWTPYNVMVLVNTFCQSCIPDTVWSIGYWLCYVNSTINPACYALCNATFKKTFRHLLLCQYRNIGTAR
Experimental: Membranes produced from Chinese hamster ovary cells (CHO) expressing the cloned human M4 receptor (human Muscarinic receptor subtype 4, gene bank access NM_000741), are obtained from Perkin-Elmer (RBHM4M). The membranes are thawed at 37° C., passed 3 times through a 23-gauge blunt-end needle, diluted in the GTPγS binding buffer (50 mM Hepes, 20 mM NaOH, 100 mM NaCl, 1 mM EDTA, 5 mM MgCl2, pH 7.4, 100 μM DTT). The EC50, IC50 and Emax of the compounds of the invention are evaluated from 10-point dose-response curves (three fold concentration range) done in 60 μl in 384-well non-specific binding surface plate (Corning). Ten microliters from the dose-response curves plate (5× concentration) are transferred to another 384 well plate containing 25 μl of the following: 10 μg of hM4 membranes, 500 μg of Flashblue beads (Perkin-Elmer) and GDP 40 μM. An additional 15 μl containing 3.3× (60,000 dpm) of GTPγ^35S (0.4 nM final) are added to the wells resulting in a total well volume of 50 μl. Basal and maximal stimulated [^35S]GTPγS binding are determined in absence and presence of 30 μM final of acetylcholine agonist. The membranes/beads mix are pre-incubated for 15 minutes at room temperature with 40 μM GDP prior to distribution in plates (20 μM final). The reversal of acetylcholine-induced stimulation (10 μM final) of [^35S]GTPγS binding is used to assay the antagonist properties (IC50) of the compounds. The plates are incubated for 60 minutes at room temperature then centrifuged at 400 rpm for 5 minutes. The radioactivity (cpm) is counted in a Trilux (Perkin-Elmer).
Values of EC50, IC50 and Emax are obtained using sigmoidal fits of a non-linear curve-fitting program (XLfit version 4.2.2 Excel add-in version 4.2.2 build 18 math 1Q version 2.1.2 build 18) of percent stimulated [^35S]GTPγS binding vs. log(molar ligand). All pEC50 and pIC50 values are reported as arithmetic means±standard error of mean of ‘n’ independent experiments.

[2] = target: T3, hM1 (human Muscarinic receptor subtype 1) (Homo sapiens, UniProt P11229); assay: Human M1 calcium mobilization FLIPR assay; assay type: cell-based; conditions: CHO cells expressing hM1, intracellular Ca2+ release
T3 construct: expressed in transfected cells; host or cells: CHO cells (Chinese hamster ovary cells, ATCC)
T3 sequence (P11229 1-460): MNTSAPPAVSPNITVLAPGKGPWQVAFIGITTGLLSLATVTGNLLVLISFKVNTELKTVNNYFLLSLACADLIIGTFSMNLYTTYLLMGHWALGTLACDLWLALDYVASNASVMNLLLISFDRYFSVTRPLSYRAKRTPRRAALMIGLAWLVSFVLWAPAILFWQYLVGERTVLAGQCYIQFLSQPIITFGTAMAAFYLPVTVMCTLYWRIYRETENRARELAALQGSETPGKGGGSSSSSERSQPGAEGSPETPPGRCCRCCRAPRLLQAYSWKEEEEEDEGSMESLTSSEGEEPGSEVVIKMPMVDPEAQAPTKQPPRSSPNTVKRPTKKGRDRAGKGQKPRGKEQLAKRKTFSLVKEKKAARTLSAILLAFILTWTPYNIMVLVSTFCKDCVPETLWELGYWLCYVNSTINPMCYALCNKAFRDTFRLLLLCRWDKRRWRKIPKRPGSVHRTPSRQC
Experimental: as §1, §2, §3, §4

T1 sequence (P20309 whole entry): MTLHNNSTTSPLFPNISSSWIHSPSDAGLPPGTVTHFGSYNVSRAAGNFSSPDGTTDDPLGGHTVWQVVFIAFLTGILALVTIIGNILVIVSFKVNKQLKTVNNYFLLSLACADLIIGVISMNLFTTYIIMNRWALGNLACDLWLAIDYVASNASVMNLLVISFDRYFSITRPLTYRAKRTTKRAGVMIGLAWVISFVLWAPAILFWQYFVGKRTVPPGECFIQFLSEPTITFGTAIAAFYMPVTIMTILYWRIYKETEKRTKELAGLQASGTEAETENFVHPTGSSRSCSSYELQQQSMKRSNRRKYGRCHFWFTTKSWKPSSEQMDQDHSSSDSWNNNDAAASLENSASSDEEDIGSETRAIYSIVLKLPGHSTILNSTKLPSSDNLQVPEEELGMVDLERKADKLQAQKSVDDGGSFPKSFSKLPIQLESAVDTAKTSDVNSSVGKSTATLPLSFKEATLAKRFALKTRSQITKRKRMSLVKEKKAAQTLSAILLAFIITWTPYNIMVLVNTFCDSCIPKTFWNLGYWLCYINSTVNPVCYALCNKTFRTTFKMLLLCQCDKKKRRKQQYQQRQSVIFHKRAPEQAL

Row | EC50 [1] | EC50 (cloned human M4 receptor) | EC50 [2] | Structure (SMILES)
1 | > 40 µM | > 21 µM | 0.014 µM | CCOC(=O)N1CCC(C)(N2CCC(N3C(=O)N[C@H]4CCCC[C@@H]43)CC2)C1 (mixture of isomers) [Example 07, Ethyl 3-[4-[(3aS,7aS)-2-oxo-3a,4,5,6,7,7a-hexahydro-3H-benzoimidazol-1-yl]-1-piperidyl]-3-methyl-pyrrolidine-1-carboxylate]
2 | – | > 30 µM | 0.069 µM | CC1(N2CCC(N3C(=O)N[C@H]4CCCC[C@@H]43)CC2)CCN(C(=O)OCCF)C1 (mixture of isomers) [Example 08, 2-fluoroethyl 3-[4-[(3aS,7aS)-2-oxo-3a,4,5,6,7,7a-hexahydro-3H-benzoimidazol-1-yl]-1-piperidyl]-3-methyl-pyrrolidine-1-carboxylate]
3 | > 40 µM | > 13 µM | < 0.0036 µM | C#CCOC(=O)N1CCC(C)(N2CCC(N3C(=O)N[C@H]4CCCC[C@@H]43)CC2)C1 (mixture of isomers) [Example 09, Prop-2-ynyl 3-[4-[(3aS,7aS)-2-oxo-3a,4,5,6,7,7a-hexahydro-3H-benzoimidazol-1-yl]-1-piperidyl]-3-methyl-pyrrolidine-1-carboxylate]
4 | – | > 30 µM | 0.069 µM | COC(=O)N1CCC(C)(N2CCC(N3C(=O)N[C@H]4CCCC[C@@H]43)CC2)C1 (mixture of isomers) [Example 10, Methyl 3-[4-[(3aS,7aS)-2-oxo-3a,4,5,6,7,7a-hexahydro-3H-benzoimidazol-1-yl]-1-piperidyl]-3-methyl-pyrrolidine-1-carboxylate]
5 | – | > 30 µM | 0.055 µM | CCOC(=O)N1CCC(C)(N2CCC(N3C(=O)N[C@@H]4CCCC[C@H]43)CC2)C1 (mixture of isomers) [Example 11, Ethyl 3-[4-[(3aR,7aR)-2-oxo-3a,4,5,6,7,7a-hexahydro-3H-benzoimidazol-1-yl]-1-piperidyl]-3-methyl-pyrrolidine-1-carboxylate]
6 | > 40 µM | > 4 µM | 0.011 µM | CCOC(=O)N1CCC(C)(N2CCC(N3C(=O)N[C@@H]4CCCC[C@@H]43)CC2)CC1 (relative stereo) [Example 12, Ethyl 4-[4-[(cis)-2-oxo-3a,4,5,6,7,7a-hexahydro-3H-benzoimidazol-1-yl]-1-piperidyl]-4-methyl-piperidine-1-carboxylate]
7 | > 40 µM | > 30 µM | 0.054 µM | CC(C)OC(=O)N1CCC(C)(N2CCC(N3C(=O)N[C@@H]4CCCC[C@@H]43)CC2)CC1 (relative stereo) [Example 13, Propan-2-yl 4-[4-[(cis)-2-oxo-3a,4,5,6,7,7a-hexahydro-3H-benzoimidazol-1-yl]-1-piperidyl]-4-methyl-piperidine-1-carboxylate]
8 | – | 0.919 µM | 0.0049 µM | CC#CCOC(=O)N1CCC(C)(N2CCC(N3C(=O)N[C@H]4CCCC[C@@H]43)CC2)C1 (single isomer, unassigned) [Example 19]
9 | > 22.1 µM | > 90 µM | 0.0184 µM | CCOC(=O)N1CCC(C)(N2CCC(N3C(=O)N[C@H]4CCCC[C@@H]43)CC2)C1 (single isomer, unassigned) [Example 21]
10 | > 25.6 µM | 3.47 µM | 0.003 µM | CCOC(=O)N1CCC(C)(N2CCC(N3C(=O)N[C@H]4CCCC[C@@H]43)CC2)C1 (single isomer, unassigned) [Example 22]
11 | 1.4 µM | > 1.2 µM | 0.0019 µM | CCOC(=O)N1CCC(C)(N2CCC(N3C(=O)N[C@H]4CCCC[C@@H]43)CC2)CC1 [Example 01, Ethyl 4-[4-[(3aS,7aS)-2-oxo-3a,4,5,6,7,7a-hexahydro-3H-benzoimidazol-1-yl]-1-piperidyl]-4-methyl-piperidine-1-carboxylate]
12 | > 40 µM | > 6.5 µM | < 0.0071 µM | CC1(N2CCC(N3C(=O)N[C@H]4CCCC[C@@H]43)CC2)CCN(C(=O)C2CC2)CC1 [Example 03, (3aS,7aS)-1-[1-[1-(cyclopropanecarbonyl)-4-methyl-4-piperidyl]-4-piperidyl]-3a,4,5,6,7,7a-hexahydro-3H-benzoimidazol-2-one]
13 | – | > 30 µM | 0.0015 µM | C#CCOC(=O)N1CCC(C)(N2CCC(N3C(=O)N[C@H]4CCCC[C@@H]43)CC2)CC1 [Example 17, prop-2-ynyl 4-[4-[(3aS,7aS)-2-oxo-3a,4,5,6,7,7a-hexahydro-3H-benzimidazol-1-yl]-1-piperidyl]-4-methyl-piperidine-1-carboxylate]

Row | Structure (SMILES) | EC50 [1] | EC50 (cloned human M4 receptor) | EC50 [2]
14 | CCOC(=O)N1CCC(C)(N2CCC(N3C(=O)C[C@@H]4CCCC[C@H]43)CC2)C1 (stereo in doubt) [Example 23, Ethyl 3-[4-[(3aS,7aR)-2-oxo-3a,4,5,6,7,7a-hexahydro-3H-indol-1-yl]-1-piperidyl]-3-methyl-pyrrolidine-1-carboxylate] | > 120 µM | 17 µM | 0.022 µM
15 | CC(C)OC(=O)N1CCC(C)(N2CCC(N3C(=O)N[C@H]4CCCC[C@@H]43)CC2)CC1 [Example 02, Propan-2-yl 4-[4-[(3aS,7aS)-2-oxo-3a,4,5,6,7,7a-hexahydro-3H-benzoimidazol-1-yl]-1-piperidyl]-4-methyl-piperidine-1-carboxylate] | > 40 µM | > 30 µM | 0.0044 µM
